Data as given in patent US20230025865A1, “COMPOSITIONS AND METHODS FOR […] […] OF Bcl-2 AND Bcl-xL ANTAGONISTS” (The Regents of the University of Michigan, priority 2019, published 2023).

What was measured:
[1] = system: small cell lung cancer (SCLC), colon, breast and acute lymphoblastic leukemia (ALL) cancer xenografts; conditions: cited from earlier work
[2] = stability of APG-1252 during formulation preparation and lyophilization process (HPLC); format: physicochemical; conditions: final lyophilization product compared to original drug
Protocol: The contents of APG-1252 and its hydrolysis product BM-1244 were measured before and after formulation preparation and lyophilization process by method described above.

[3] = system: erythroleukemic HEL, megakaryoblastic leukemic SET-2 and Ruxolitinib resistant HEL cell line; assay: cytotoxicity, CellTiter96 AQueous cell proliferation assay; format: cell-based; conditions: single drug, 72 h, HEL and SET-2 cell lines
Protocol: (§1) Cells were seeded in a 96 well plate with 3000 cells per well and culture for 24 h, the appropriate amount of drug in a serial dilution manner was added to each well. After incubation for 72 h, Cell Proliferation was detected by CellTiter96™ AQueous Nonradioactive Cell Proliferation Assay Kit.

[4] = system: mantle cell lymphoma (B cell non-Hodgkin's lymphoma) cell line Mino, and Z138 and Rec; assay: as above; format: cell-based; conditions: single drug, 72 h
Protocol: as §1

[5] = tissue distribution of APG-1252 and BMS-1244 (FIG. 15); format: in vivo, CD-1 IGS mice; conditions: for 48 hours
Source text: The APG-1252 and BMS-1244 concentration versus time curve in different tissues in CD-1 IGS mice.

SMILES	combination with chemotherapeutic agents ([1]; in vivo)	tumor regression as single agent ([1]; twice weekly or weekly dose-schedule)	percentage of BM-1244 [2] [%]	cytotoxicity alone [3]	cytotoxicity alone [4]	BMS-1244 relative to APG-1252 [5]
Cc1c(S(C)(=O)=O)c(-c2cc(F)cc(N3CCN(c4ccc(NS(=O)(=O)c5ccc(N[C@H](CCN6CCC(C(=O)OCCCP(=O)(O)O)CC6)CSc6ccccc6)c(S(=O)(=O)C(F)(F)F)c5)cc4)CC3)c2)c(-c2ccc(Cl)cc2)n1C(C)C [APG-1252, (R)-(3-((1-(3-((4-(N-(4-(4-(3-(2-(4-chlorophenyl)-1-isopropyl-5-methyl-4-(methylsulfonyl)-1H-pyrrol-3-yl)-5-fluorophenyl)piperazin-1-yl)phenyl)sulfamoyl)-2-((trifluoromethyl)sulfonyl)phenyl)amino)-4-(phenylthio)butyl)piperidine-4-carbonyl)oxy)propyl)phosphonic acid]	strong synergy with the chemotherapeutic agents	complete and persistent tumor regression	0.16	similar	similar	–
Cc1c(S(C)(=O)=O)c(-c2cc(F)cc(N3CCN(c4ccc(NS(=O)(=O)c5ccc(N[C@H](CCN6CCC(C(=O)O)CC6)CSc6ccccc6)c(S(=O)(=O)C(F)(F)F)c5)cc4)CC3)c2)c(-c2ccc(Cl)cc2)n1C(C)C [BM-1244, (R)-1-(3-((4-(N-(4-(4-(3-(2-(4-chlorophenyl)-1-isopropyl-5-methyl-4-(methylsulfonyl)-1H-pyrrol-3-yl)-5-fluorophenyl)piperazin-1-yl)phenyl)sulfamoyl)-2-((trifluoromethyl)sulfonyl)phenyl)amino)-4-(phenylthio)butyl)piperidine-4-carboxylic acid]	–	–	–	–	–	less than 10%
